Where a name gives a salt, the structure may show the parent alone.
What was measured:
[1] = test system: rats injected with Aβ(25-35); assay: Reduction of locomotor impairment due to Aβ-peptide injected into substantia nigra; assay type: in vivo, Sprague-Dawley rat; settings: oral 1-10 mg/kg one hour before and three hours post 20 μg Aβ(25-35) injection; tested one week after treatment
Method: Male Sprague-Dawley rats (250-400 g) were given injections of 20 μg of Aβ(25-35) into their substantia nigra. Prior to the injection, the rats were fasted overnight and then each received an oral treatment of the test compound (1-10 mg/kg) dissolved in aqueous 1% methyl cellulose or the vehicle alone, one hour before and three hours post the Aβ-peptide stereotaxic injection. One week after treatment, the rats were dosed s.c. with 0.5 mg/kg apomorphine (dissolved in 0.1% vitamin C in isotonic saline) and the circling reflex was monitored using a Rotorat computerized behavioral monitoring apparatus for the time period between 15 and 30 minutes of being placed in the arena. Impairment of the animals due to Aβ-peptide was determined by measuring the number of rotations over the 15 minute period.

[2] = test system: interleukin-1β (IL-1β) release, THP-1 cells; assay: Reduction of LPS and β-amyloid-induced increased release of interleukin-1β in THP-1 cells (ELISA); assay type: cell-based; settings: Homo sapiens, 100 μM test compound with LPS and Aβ(25-35), 48 hours, read-out: reduction of β-amyloid-induced increased release of interleukin-1β compared to the controls
Method: (§1) THP-1 cells, a human monocyte cell line from American Type Culture Collection, were grown in RPMI-1640 medium plus 10% fetal bovine serum (FBS, not heat-inactivated) in T-flasks. The medium was changed every two days by spinning down (800 rpm, 5 minutes) the cells, replating cells and adding fresh medium. Alternatively, the cultures were maintained by the addition of fresh medium. The cultures were maintained at a cell concentration ranging from between 1×10^5 and 1×10^6 cells/mL. Because sera may contain unknown factors which can affect macrophage/monocyte IL-1 production, the FBS was reduced to 5% for 24 hours. The FBS was further reduced to 2% over two days prior to starting each experiment. The cells were collected by centrifugation and resuspended into 2% FBS. Cell numbers were calculated and cells were plated on 24-well plates (3×10^5 cells/0.6 mL/well). Cells were then treated with LPS (0.5 μg/ml or 0-10 μg/ml for LPS dose-responseexperiments) alone or in combination with Aβ peptides (5 μM or 0.05-5 μM for dose-response experiments). When determining the effect of the test compounds on IL-1β, IL-6 and TNFα release, 100 μM of the test compound was added with the LPS and Aβ(25-35) and this mixture was incubated for 48 hours prior to performing ELISA.
(§2) IL-1β, IL-6 and TNFα secretions into medium by LPS-stimulated THP-1 cells, in the presence or absence of amyloid peptides and a test compound, were assayed with a commercially available ELISA kit (R & D Systems). Briefly, a microtiter plate coated with a murine monoclonal antibody to human IL-1β, IL-6, or TNFα was supplied by the manufacturer. Standards and samples were pipetted into the wells and any IL-1β, IL-6 or TNFα present was bound by the immobilized antibody. Unbound proteins were washed away and a horseradish peroxidase-linked polyclonal antibody specific for IL-1β, IL-6 or TNFα was added to the wells to "sandwich" the IL-1β, IL-6 and TNFα bound in the initial step. After washing to remove any unbound antibody-enzyme reagent, a substrate solution (1:1 hydrogen peroxide:tetramethylbenzidine, v/v) was added to the wells and color developed in proportion to the amount of IL-1β, IL-6 or TNFα bound in the initial step. Color development was stopped with 2 N sulfuric acid and the optical density of the standard and the test samples was measured at 450 nm. The amounts of IL-1β, IL-6 or TNFα present in the samples were calculated based upon a standard curve. Assays were run in quadruplicate wells.

[3] = test system: MRL/MpJfas^1pr mutant mice; assay: Reduction of cognitive deficits in autoimmune mice (T-maze); assay type: in vivo, mouse; settings: Fas^1pr mice; 100 mg/kg p.o. daily from 2 to 4 months of age (9 weeks); versus untreated mutant mice
Source text: MRL/MpJfas^1pr ("mutant mice" or "Fas^1pr ") strains of mice have been described as useful models of Lupus due to their autoimmune lymphoproliferatory pathology. In particular, the mutant mice show a cognitive deficit at approximately four months of age, which is not observed at two months of age. See, for example, Forster et al., 1988, Behav. Neural Biology, 49, 139-151.
In the experiment, wild-type ("++") and Fas^1pr strains of mice were received at 4 to 8 weeks of age (n=10-11). The compound of Example 1 above or 1% methylcellulose (100 mg/kg p.o.) was administered daily from 2 months of age to 4 months of age (a total of 9 weeks). After reaching 4 months of age, the mice were tested for cognitive ability in a T-maze. This behavioral task measures discrimination, active avoidance and acquisition skills (acquisition is the number of avoidances in the first 5 test trials).

[4] = test system: tumor necrosis factor-α (TNFα) release, THP-1 cells; assay: Reduction of LPS and β-amyloid-induced increased release of tumor necrosis factor-α in THP-1 cells (ELISA); assay type: cell-based; settings: Homo sapiens, 100 μM test compound with LPS and Aβ(25-35), 48 hours, read-out: reduction of β-amyloid-induced increased release of tumor necrosis factor-α compared to the controls
Method: as §1, §2

[5] = test system: rat embryonic hippocampal primary neuronal/astrocytic cultures; assay: Protection against Aβ(25-35)-induced neuronal cell loss; assay type: cell-based, Sprague Dawley rat; settings: Neuron, 100 μM test compound, 30 μM Aβ(25-35), 96 hours treatment, morphologically viable neurons counted, read-out: reduction of Aβ(25-35)-induced neuronal cell loss compared to the controls
Method: Sprague Dawley rat hippocampus of 18-day-gestation embryos was excised and then dissociated by trituration to prepare primary neuronal/astrocytic cultures. Cells (3×10^5) were plated on 35 mm poly-D-lysine-coated plates containing Eagle's minimum essential medium supplemented with 10% fetal bovine serum. After 3-5 hours, the original medium was removed and replaced with 1 mL of fresh medium. Cultures were maintained at 37° C. in a 5% CO2 /95% air, humidified incubator.
To the cells (7 DIV) was added 30 μM of Aβ(25-35) dissolved in dH2 O (stored at -20° C.) and 100 μM of the test compound in 1% methylcellulose. Controls were also conducted without the test compound. The percentage of morphologically viable neurons was determined counting the number of viable neurons after 96 hours treatment compared to the number of neurons before treatment in the same premarked culture regions (three regions/culture). The number of wells was n=6 per treatment condition.

synthetic Aβ(1-40) = molecular target: T1, synthetic Aβ(1-40) (Homo sapiens, UniProt P05067); assay: Inhibition of Aβ(1-40) beta-pleated sheet formation (thioflavin T fluorescence); assay type: biochemical; settings: compound 10 μM; ThT 3 μM in PBS pH 6.0; Aβ(1-40) 3 μg; fluorescence increase over 12-24 hours; read-out: percent inhibition of Aβ(1-40) beta-pleated sheet formation compared to the controls
T1 construct: particularly the aggregated fibrils of synthetic Aβ(1-40)
T1 sequence (P05067 672-711): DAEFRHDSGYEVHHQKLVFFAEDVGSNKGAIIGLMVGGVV
Method: Thioflavin T (ThT) is known to rapidly associate with beta-pleated sheets, particularly the aggregated fibrils of synthetic Aβ(1-40). This association gives rise to a new excitation maximum at 440 nm and to enhanced emission at 490 nm.
The experiments were performed using a CytoFluor II fluorescence plate reader having the following parameters: […]
Into each well was aliquoted 95 μl of ThT (3 μM) prepared in PBS (pH 6.0), 2 μL of the compound to be tested (10 μM) prepared with 0.05% of methylcellulose in PBS (pH 6.0), and 3 μL of Aβ(1-40) (3 μg) prepared with dH2 O. The fluorescence measurement began when the Aβ(1-40) was added and continued for a total of 12-24 hours. The percent inhibition of beta-pleated sheet formation was calculated from the relative fluorescence unit increase over the 12-24 hours between aggregation in the presence and in the absence of the test compounds.

[6] = test system: interleukin-6 (IL-6) release, THP-1 cells; assay: Reduction of LPS and β-amyloid-induced increased release of interleukin-6 in THP-1 cells (ELISA); assay type: cell-based; settings: Homo sapiens, 100 μM test compound with LPS and Aβ(25-35), 48 hours, read-out: reduction of β-amyloid-induced increased release of interleukin-6 compared to the controls
Method: as §1, §2

In the case of `CCCCNC(=O)c1ccc(S(=O)(=O)[O-])o1.[Na+]` [Example 1, N-n-Butyl-5-carbamoylfuran-2-sulfonic Acid Sodium Salt], the “locomotor impairment (apomorphine-induced rotations over 15 minute period) compared to Aβ(25-35)-treated controls” value [1] is reported as “reduced the locomotor impairment”, the inhibition at 100 µM [2] is reported as ≥ 20% and the “acquisition in T-maze (FIG. 1)” value [3] is reported as “acquired avoidance skills earlier than untreated mutant mice”. For the same compound, the “avoidance in T-maze (FIG. 2)” value [3] was “reduced avoidance values”, the inhibition at 100 µM [4] was ≥ 20% and the inhibition at 100 µM [5] was ≥ 60%. For the same compound, the inhibition at 10 µM (synthetic Aβ(1-40)) was ≥ 10% and the inhibition at 100 µM [6] was ≥ 20%.

For `CC(C)NC(=O)c1ccc(S(=O)(=O)O)o1` [Example 2, N-Isopropyl-5-carbamoylfuran-2-sulfonic Acid Sodium Salt], the inhibition at 100 µM [2] was ≥ 20%, the inhibition at 100 µM [4] was ≥ 20% and the inhibition at 100 µM [5] was ≥ 60%. For the same compound, the inhibition at 10 µM (synthetic Aβ(1-40)) was ≥ 10% and the inhibition at 100 µM [6] was ≥ 20%.

In the case of `CCCCNC(=O)CCc1ccc(S(=O)(=O)O)o1` [Example 6, 5-[2-(N-n-Butylcarbamoyl)ethyl]-furan-2-sulfonic Acid Sodium Salt], the inhibition at 100 µM [2] is reported as ≥ 20%, the inhibition at 100 µM [4] is reported as ≥ 20% and the inhibition at 10 µM (synthetic Aβ(1-40)) is reported as ≥ 10%. For the same compound, the inhibition at 100 µM [6] was ≥ 20%.

For `CCCCNC(=O)C=Cc1ccc(S(=O)(=O)O)o1` [Example 5, 5-[2-(N-n-Butylcarbamoyl)eth-1-enyl]-furan-2-sulfonic Acid Sodium Salt], the inhibition at 100 µM [2] was ≥ 20%, the inhibition at 100 µM [4] was ≥ 20% and the inhibition at 100 µM [5] was ≥ 60%. The inhibition at 100 µM [6] was ≥ 20%.
